Reference: patent US20090182011A1, “Chimeric Nitrate Esters and Use of the Same in a Treatment for Depression” (UNIVERSITY OF ILLINOIS CHICAGO, priority 2008, published 2009)

How the values were obtained:
male C57BL/6 mice = assay: Step-through passive avoidance (STPA) task, scopolamine induced memory impairment; details: for effect on 48 h retention (scopolamine induced long term memory impairment): 4.5 umole/kg i.p. 20 minutes before training (NO-fluoxetine 2.05 mg/kg, fluoxetine 1.54 mg/kg), scopolamine 1 mg/kg
Procedure: Step-through passive avoidance (STPA) task This test was performed on male C57BL/6 mice (from Charles River's Laboratories), 8-10 weeks of age and weighing 22-27 g. The mice were kept under standardized laboratory conditions (temperature 21±1° C., humidity 50-60%) with free access to food and tap water in a room with a natural light-dark cycle.
Avoidance experiment was divided into 3 phases: habituation, training, and retention. The apparatus used consisted of a box divided into 2 compartments, an illuminated compartment adjacent to a dark compartment, the floor consisted of an electric grid controlled by a switch that can deliver an electric shock only to the dark compartment. A doorway was located at floor level in the center of the connecting wall; the door was closed once the mouse enters the dark compartment. The habituation phase was performed by individually putting the mice in the light compartment; the door was closed once the mouse enters the dark compartment (without an electric shock), left there for 15 seconds before being returned to its cage. The time (latency) to enter the dark box was recorded for each mouse; only mice scoring less than 30 seconds for three consecutive times were allowed to pass for the training phase. Training phase was performed 2 hours after the habituation phase by individually placing the mice again in the illuminated compartment but an electric shock (0.6 mA for 2 s) was delivered immediately after the mouse entered the dark compartment accompanied by the door closure. Trial was repeated for a maximum of 5 trials or until the mouse remained in the light compartment for 300 seconds in one of the trials. During the training phase, the number of trials and the time (latency) to enter the dark compartment was scored. Mice that entered the dark compartment in the fifth trial in less than 300 seconds were eliminated from the experiment. Forty-eight hours after the training trial, a retention test was conducted in which the same animals were put into the illuminated box and again the latency to enter the dark box was recorded. The retention trial ended when the mouse entered the dark box or 300 s had elapsed, whichever occurred first. Scopolamine (1 mg/kg) dissolved in physiological saline water was administered by i.p. injection 30 minutes before the training phase and drugs dissolved in 25% DMSO were administered by i.p. injection 20 minutes before the training.
The data were statistically evaluated by one way ANOVA, followed by Tukey post-hoc test.

[1] = NOx detection (NO analyzer, Griess assay); details: incubated with GSH
Procedure: NOx detection A degassed solution containing NO-fluoxetine (0.5 mM), and cysteine (5 mM) or GSH (5 mM) in 50 mM phosphate buffer (pH 7.4, 1 mL total volume) was incubated for 30 min at 37° C. After 30 min, nitric oxide was detected using an NO analyzer, and nitrite and nitrate was detected using Griess assay.

male Sprague Dawley rats = assay: Modified forced swimming test; format: in vivo, rat; details: 26.5 mg/kg i.p. 23.5, 5 and 1 hour before the test
Procedure: Modified forced swimming test This test was performed using male Sprague Dawley rats weighing 200-250 g. Rats were trained to swim in the water tank for 15 minutes 24 hour before the test. NO-Fluoxetine was administered by i.p. injections 23.5, 5, and 1 hour before the test at a dose of 26.5 mg/kg, which is equimolar to 20 mg/kg fluoxetine. NO-fluoxetine was freshly prepared in an emulsion formed of 5% Tween 80. The test was performed by putting the rats in a water tank consisting of an acrylic cylinder (22 cm diameter, 30 cm water depth, 25° C. water temperature) for 5 minutes. The 5 minute test was divided into 60 blocks of 5 seconds each. The major behavior in each 5 sec block was assigned for the whole block, including climbing, swimming, and immobile. The blocks representing different behaviors were counted.
In vivo NO-fluoxetine (26.5 mg/kg equimolar to 20 mg/kg fluoxetine) given by i.p. injections 23.5, 5, and 1 hour before the test was active in the modified forced swimming test, showing an increase in the swimming behaviour and a decrease in the immobility behaviour. Sub-acute injection of NO-fluoxetine provides sufficient time for the bioactivation of NO-fluoxetine and the subsequent release of fluoxetine.
Values presented as mean±SEM, n=6 per group. The data were statistically evaluated by ANOVA, followed by Turkey post-hoc test.

[2] = NO-fluoxetine bioactivation in phosphate buffer; format: physicochemical; details: 50 mM phosphate buffer solutions pH 7.0, 7.4 and 8.0
Procedure: In Phosphate buffer saline A stock solution of NO-fluoxetine was prepared by dissolving 1 mg of the compound in 100 μL MeOH (21 mM). An aliquot (10 μL) of the stock solution was added to 990 μL of 50 mM phosphate buffer (pH 7.4) at 22° C., and the formation of fluoxetine was monitored by reverse phase HPLC using 4.6 mm×150 mm C18 column at a flow rate of 1.0 mL/min. The mobile phase contained 60% acetonitrile content, which was increased to 90% over 5 min. After the phase was held 90% for 5 min, the acetonitrile was reduced to 60% in 5 min. Formation of fluoxetine in buffers was positively identified by comparing retention time and the LC-MS (electrospary ionization) protonated [M+H]+ molecular ion (m/z 310) of the authentic sample. Fluoxetine formation was monitored every 15 min and percentage of fluoxetine formation was obtained with respect to time. Kinetic experiments were performed in 50 mM phosphate buffer solutions (pH 7.0, pH 7.4, and pH 8.0).
Formation of fluoxetine in buffer was positively identified by comparison to the retention time and the LC-MS (electrospary ionization) protonated [M+H]+ molecular ion (m/z 310) of an authentic fluoxetine sample.
Kinetic studies for the degradation of NO-fluoxetine were performed by monitoring the production of fluoxetine every 15 min in different pH buffer solutions (See FIG. 1).

[3] = NO-fluoxetine bioactivation in rat plasma; format: in vitro ADME; details: 0.25 mM substrate, 30 min, 37° C.
Procedure: In plasma A solution containing substrate (0.25 mM) and rat plasma (0.1 mL) was incubated for 30 min at 37° C. The reaction was quenched by addition of acetonitrile and centrifugation for 10 min. The solution was filtered and injected to HPLC.

[4] = NO-fluoxetine bioactivation in rat liver microsomes; format: in vitro ADME; details: 0.25 mM substrate, NADPH, 30 min, 37° C.
Procedure: In rat liver microsomes A solution containing substrate (0.25 mM), rat liver microsomes (3 nmol of P450/0.5 mL), and NADPH (2 mM) in 50 mM phosphate buffer (pH 7.4, 0.5 mL total volume) was incubated for 30 min at 37° C. The reaction was quenched by addition of acetonitrile and centrifugation for 10 min. The solution was filtered and injected to HPLC.

SMILES	animals that failed to learn the STPA task during the training phase (male C57BL/6 mice; 4.5 umole/kg i.p. 20 minutes before training)	effect on 48 h retention (scopolamine induced long term memory impairment) (male C57BL/6 mice)	nitric oxide release [1]	activity in the modified forced swimming test (male Sprague Dawley rats)	immobility behaviour (male Sprague Dawley rats)	swimming behaviour (male Sprague Dawley rats)	conversion in buffer [2]	product of reaction with plasma [3]	product of reaction with rat liver microsomes [4]
CNCCC(Oc1ccc(C(F)(F)F)cc1)c1ccccc1 (stereo not shown) [fluoxetine]	5 of 12 and zero	did not have an effect							
CN(CCC(Oc1ccc(C(F)(F)F)cc1)c1ccccc1)C(=O)SCCO[N+](=O)[O-] (stereo not shown) [NO-fluoxetine]		reversed the scopolamine induced long term memory impairment	released nitric oxide	active	decrease	increase	converted to fluoxetine	generated fluoxetine as the major product	generated fluoxetine as the major product
